Laboratory results published in US20210198365A1, “COMBINATION PRODUCT FOR THE TREATMENT OF CANCER” (Debiopharm International S.A., priority 2017, published 2021).

Experiments:
human T cells (PBMCs) = experiment: Ex vivo T-cell activation in human PBMCs upon CD3/CD28 stimulation; assay type: cell-based; settings: 10 μM Debio 1143 added to anti-CD3/CD28 stimulation, 24 hours, cytometric analysis
Method: FIG. 1: Ex vivo T-cell activation in human peripheral blood mononuclear cells (PBMCs) upon CD3/CD28 stimulation and Debio 1143 treatment. N=1 healthy donor; values represent means of triplicates±SD. To test the effect of Debio 1143 on activation of human T cells, PBMCs freshly isolated from healthy human donors were stimulated ex vivo with anti-CD3/CD28 antibodies for 24 in the presence of 10 μM Debio 1143, or control treatments without stimulation and Debio 1143 incubation.

MBT-2 bladder cancer = experiment: Subcutaneous MBT-2 mouse bladder cancer syngeneic model; assay type: in vivo; settings: anti-PD-L1 5 mg/kg i.p. bi-weekly; Debio 1143 100 mg/kg p.o. QD1-5; alone or combined, 3 weeks
Method: FIG. 3: Anti-tumor activity of Debio 1143, anti-PD-L1 antibody, and their combination in the subcutaneous MBT-2 mouse bladder cancer syngeneic model.
The anti-tumor activity of an anti-PD-L1 antibody (5 mg/kg BIW i.p.; clone 10F.9G2, BioXcell) was tested either alone or in combination with Debio 1143 (100 mg/kg QD1-5 p.o.) in MBT-2 immunocompetent syngeneic mouse model of bladder cancer in C3H/HeNCrl mice over 3 weeks (see, for example, Shimazui et al., 2013. Int J Oncol. 42(2):543-8). Each mouse was inoculated subcutaneously at the right flank region with MBT-2 tumor cells (2×10^5) in 0.1 ml of PBS for tumor development. The treatments were started when the mean tumor size reached 101 mm^3 (n=8/group).

With CN[C@@H](C)C(=O)N[C@H]1CN(C(=O)CC(C)C)CC[C@H]2CC[C@@H](C(=O)NC(c3ccccc3)c3ccccc3)N2C1=O [Debio 1143, (5S,8S,10aR)-N-benzhydryl-5-((S)-2-(methylamino)propanamido)-3-(3-methylbutanoyl)-6-oxodecahydropyrrolo[1,2-a][1,5]diazocine-8-carboxamide] the “T cell activation (percentage of IFNγ+ CD4+ and IFNγ+ CD8+ T-cells)” value (human T cells (PBMCs)) was “significant increase in T cell activation” and the anti-tumor activity (MBT-2 bladder cancer) was “weak anti-tumor activity”.
